Test results taken from article PMC11897554, “Pharmacokinetic effect of disease severity and use of extracorporeal membrane oxygenation in critically ill Asian patients receiving vancomycin” (Frontiers in Pharmacology, 2025).

Assays:
[1] = ref Chung et al., 2021, Matusik et al., 2022, cited from earlier work
Source text: In pediatric patients, vancomycin pharmacokinetics can be highly variable due to age-related differences in drug absorption, distribution, metabolism, and elimination. Population pharmacokinetic models provide quantitative and semi-quantitative frameworks for optimizing dosing regimens. They achieve this by identifying sources of variability, by determining factors that influence the pharmacokinetic behavior of the drug, and quantifying the magnitude of unexplained variability ([Stockmann et al., 2013]).

[2] = within 24 h; ref Shimamoto et al., 2021; Le et al., 2013; cited from earlier work
[3] = Population pharmacokinetic analysis (nonlinear mixed-effects, one-compartment) of vancomycin therapeutic drug monitoring data in critically ill patients
Source text: This retrospective study used medical records of critically ill patients hospitalized in Kaohsiung Veterans General Hospital, Taiwan, from 1 January 2014, to 31 December 2016. The study was approved by the Kaohsiung Veteran General Hospital Institutional Review Board (certificate number VGHKS18-CT9-12). A waiver of informed consent was granted as the data were collected retrospectively from medical records. The identity of the study subjects was masked through the use of a study identifier. Data were de-identified. […] Patients were excluded if vancomycin concentrations in blood could not be detected or if there were incomplete data on the vancomycin regimen. As per the study protocol the blood samples were collected >1 h after the end of dose administration (peak concentration) and within 30 min before the next dose (trough concentration). Trough and peak concentrations obtained after administering at least four equal repeated doses were referred to as the steady-state concentrations.
Data abstracted included height, weight, age, principal diagnosis at admission, whether an open-heart surgery had been performed, serum creatinine concentrations, whether extracorporeal membrane oxygenation (ECMO), and vancomycin dosage, frequency, route, speed, and administration time indications for the use of vancomycin. The estimated glomerular filtration rate (eGFR) was calculated using the bedside Schwartz equation from serum creatinine values ([Schwartz et al., 2009]). There were nine distinct diagnostic categories at admission. To improve simplicity and interpretability, diagnoses were grouped into two major categories based on clinical differences, depending on the severity of the bacterial infection for which vancomycin was used. The first category (severe infections) corresponded to people diagnosed with pneumonia/bacteremia/osteomyelitis/meningitis/deep tissue infection, and the second category (mild infections) included people diagnosed with cellulitis/surgical prevention/neutropenic fever/others.
Vancomycin plasma concentrations were transformed into their natural logarithms. The corresponding concentration versus time plot was placed on a logarithmic scale for all the subjects to address normality. The concentration-time profiles were characterized using nonlinear mixed-effects modeling using Phoenix NLME (Certara Inc. version 8.2). Concentrations below the lower limit of detection (LLOD) were excluded from the analysis. Concentrations below the lower limit of quantitation (LLOQ) were divided by two to obtain an unbiased conservative estimate of the true concentration. One- and two-compartment models with first-order elimination with additive, proportional, and combined error models were considered for the base model. The between-subject variability was normally distributed with a mean equal to 0 and variance equal to ω^2. The allometric scaling exponent for clearance and volume of distribution were fixed at 0.75 and 1, respectively ([Holford, 1996]; [Chung et al., 2021]). The models were run with the FOCE-ELS algorithm and simple run mode. […] Weight was applied a priori to the base model. A sensitivity analysis was performed after the final structural model selection, and the initial estimates were changed to evaluate the robustness of the model.
The clinically relevant categorical covariates that were investigated included the major diagnosis category/infection severity, extracorporeal membrane oxygenation (ECMO) status, and surgery status. Covariate investigation was conducted in stepwise covariate search run mode in Phoenix (Phoenix®, version 8.2, Certara, Princeton, NJ) using stepwise forward inclusion followed by stepwise backward elimination. The models were assessed by a reduction or increase in the objective function value (OFV), equal to −2*log likelihood. During forward selection, any covariate that reduced the OFV by > 3.84 [p < 0.05, χ2 distribution with 1 degree of freedom (df)] was significant.

[4] = calculated from final model, median weight, ηCl = 0
[5] = non-parametric bootstrap of final model, 1,000 datasets
[6] = non-parametric bootstrap, 1,000 datasets

## CN[C@H](CC(C)C)C(=O)N[C@H]1C(=O)N[C@@H](CC(N)=O)C(=O)N[C@H]2C(=O)N[C@H]3C(=O)N[C@H](C(=O)N[C@H](C(=O)O)c4cc(O)cc(O)c4-c4cc3ccc4O)[C@H](O)c3ccc(c(Cl)c3)Oc3cc2cc(c3O[C@@H]2O[C@H](CO)[C@@H](O)[C@H](O)[C@H]2O[C@H]2C[C@](C)(N)[C@H](O)[C@H](C)O2)Oc2ccc(cc2Cl)[C@H]1O [vancomycin]
[1]; dialysis mode hemodiafiltration
  half-life, HDF: 2.1 h
[1]; dialysis mode hemodialysis
  half-life, HD: 3.5 h
[2]
  administered dose excreted unchanged: approximately 90%
[3]; DIAG = 0 (pneumonia/bacteremia/osteomyelitis/meningitis/deep tissue infection), calculated from final model, median weight (12.6 kg), ηCl = 0
  Clearance value, patients with severe infections: 1.03 L/h
[3]; DIAG = 1 (cellulitis/surgical prevention/neutropenic fever/others), calculated from final model, median weight (12.6 kg), ηCl = 0
  Clearance value, patients with mild infections: 0.63 L/h
[3]; ECMO = 0, calculated from final model for an individual of median weight (12.6 kg), ηCl = 0
  Clearance value, patients without ECMO: 1.03 L/h
[3]; [4]
  % difference (reduction) in clearance, ECMO versus non-ECMO patients: ∼56%
  % difference (reduction) in clearance, mild versus severe infections: ∼39%
[3]; [5]
  tvCL, bootstrap median: 1.01 L/h
  tvV, bootstrap median: 11.85 L
[3]; [6]
  dCldDiag, bootstrap median: −0.48
  dCldECMO, bootstrap median: −0.79
[3]; one-compartment model, first-order elimination, proportional error, Phoenix NLME FOCE-ELS, IV infusion, 90 critically ill Asian patients, 263 samples, typical individual 12.6 kg, allometric exponent 1 fixed
  tvV, typical value of volume of distribution, final model estimate: 11.61 L
